Measured values published in BindingDB's records for PubMed 39481228 (Anhui Medical University).

Assays:
[1] = molecular target: T1, Cholinesterase (Homo sapiens, UniProt P06276); assay: Binding affinity to human BuChE (unknown origin) assessed as overall carbamolyation rate at 100 to 1000 nM incubated for 60 mins
[2] = molecular target: T1, Cholinesterase; assay: Binding affinity to human BuChE (unknown origin) assessed as overall carbamolyation rate at 0.025 to 100 uM incubated for 60 mins

T1 sequence (P06276 whole entry): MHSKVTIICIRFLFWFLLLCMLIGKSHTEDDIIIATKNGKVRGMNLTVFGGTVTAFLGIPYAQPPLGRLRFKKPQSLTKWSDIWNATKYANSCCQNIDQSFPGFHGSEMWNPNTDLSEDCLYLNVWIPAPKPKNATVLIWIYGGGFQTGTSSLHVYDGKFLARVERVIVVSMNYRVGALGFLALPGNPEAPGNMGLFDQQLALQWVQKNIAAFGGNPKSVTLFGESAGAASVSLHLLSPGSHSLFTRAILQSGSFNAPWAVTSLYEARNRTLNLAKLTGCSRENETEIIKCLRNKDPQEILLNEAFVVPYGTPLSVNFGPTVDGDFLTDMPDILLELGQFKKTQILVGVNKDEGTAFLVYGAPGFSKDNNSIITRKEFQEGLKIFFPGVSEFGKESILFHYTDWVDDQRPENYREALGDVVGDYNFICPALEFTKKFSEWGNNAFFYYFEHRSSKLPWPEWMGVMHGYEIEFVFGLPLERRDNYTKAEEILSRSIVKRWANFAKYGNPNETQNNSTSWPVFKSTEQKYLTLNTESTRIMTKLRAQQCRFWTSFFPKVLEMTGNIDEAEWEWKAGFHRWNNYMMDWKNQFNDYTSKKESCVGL

SMILES	Ki [1] [nM]	Ki [2] [nM]
COc1ccc(C(C)=O)c(OC(=O)N(C)Cc2ccc(F)cc2)c1	2.8	
COc1ccc(C(C)=O)c(OC(=O)N2CCCCC2)c1		0.31
